Reference: paper PMC3685705, “Antimicrobial and antiurease activities of newly synthesized morpholine derivatives containing an azole nucleus” (Medicinal Chemistry Research, 2012)
In brackets after ≈: the same amount, converted by molar mass. Where two headings read alike, the source gives them in different places.

How the values were obtained:
all the microorganisms = assay: Antimicrobial activity in vitro, whole panel; assay type: cell-based; conditions: result in words
[1] = test system: Staphylococcus aureus ATCC 25923; assay: Antimicrobial activity, broth double microdilution MIC; assay type: cell-based; conditions: ATCC25923, Mueller–Hinton broth pH 7.3, 18–24 h at 35 °C, – = no activity, read-out: minimal inhibition concentration, Sa
[2] = test system: Mycobacterium smegmatis ATCC 607; assay: as above; assay type: cell-based; conditions: Mycolicibacterium smegmatis
[3] = test system: Escherichia coli ATCC 25922; assay: as above; assay type: cell-based; conditions: ATCC25922, pH 7.3, read-out: minimal inhibition concentration, Ec
[4] = test system: Yersinia pseudotuberculosis ATCC 911; assay: microbe, parasite or virus in culture; assay type: cell-based; conditions: ATCC911, pH 7.3, read-out: minimal inhibition concentration, Yp
S. cerevisiae RSKK 251 = assay: Antifungal activity, broth double microdilution MIC; assay type: cell-based; conditions: Saccharomyces cerevisiae
[5] = test system: Enterococcus faecalis ATCC 29212; assay: Antimicrobial activity, broth double microdilution MIC; assay type: cell-based; conditions: ATCC29212, Mueller–Hinton broth pH 7.3, 18–24 h at 35 °C, – = no activity, read-out: minimal inhibition concentration, Ef
urease = urease (Canavalia ensiformis, UniProt P07374); assay: Urease inhibitory activity (Van Slyke and Archibald)
Bacillus cereus 702 Roma = assay: Antimicrobial activity, broth double microdilution MIC; assay type: cell-based; conditions: pH 7.3, read-out: minimal inhibition concentration, Bc
[6] = test system: Candida albicans ATCC 60193; assay: Antifungal activity, broth double microdilution MIC; assay type: cell-based
[7] = test system: Pseudomonas aeruginosa ATCC 43288; assay: Antimicrobial activity, broth double microdilution MIC; assay type: cell-based; conditions: ATCC43288, Mueller–Hinton broth pH 7.3, 18–24 h at 35 °C, – = no activity, read-out: minimal inhibition concentration, Pa
[8] = ATCC607, read-out: minimal inhibition concentration, Ms
[9] = RSKK251, pH 7, read-out: minimal inhibition concentration, Sc
[10] = Candida albicans, ATCC60193, pH 7, read-out: minimal inhibition concentration, Ca

urease, sequence (P07374 whole entry, looked up): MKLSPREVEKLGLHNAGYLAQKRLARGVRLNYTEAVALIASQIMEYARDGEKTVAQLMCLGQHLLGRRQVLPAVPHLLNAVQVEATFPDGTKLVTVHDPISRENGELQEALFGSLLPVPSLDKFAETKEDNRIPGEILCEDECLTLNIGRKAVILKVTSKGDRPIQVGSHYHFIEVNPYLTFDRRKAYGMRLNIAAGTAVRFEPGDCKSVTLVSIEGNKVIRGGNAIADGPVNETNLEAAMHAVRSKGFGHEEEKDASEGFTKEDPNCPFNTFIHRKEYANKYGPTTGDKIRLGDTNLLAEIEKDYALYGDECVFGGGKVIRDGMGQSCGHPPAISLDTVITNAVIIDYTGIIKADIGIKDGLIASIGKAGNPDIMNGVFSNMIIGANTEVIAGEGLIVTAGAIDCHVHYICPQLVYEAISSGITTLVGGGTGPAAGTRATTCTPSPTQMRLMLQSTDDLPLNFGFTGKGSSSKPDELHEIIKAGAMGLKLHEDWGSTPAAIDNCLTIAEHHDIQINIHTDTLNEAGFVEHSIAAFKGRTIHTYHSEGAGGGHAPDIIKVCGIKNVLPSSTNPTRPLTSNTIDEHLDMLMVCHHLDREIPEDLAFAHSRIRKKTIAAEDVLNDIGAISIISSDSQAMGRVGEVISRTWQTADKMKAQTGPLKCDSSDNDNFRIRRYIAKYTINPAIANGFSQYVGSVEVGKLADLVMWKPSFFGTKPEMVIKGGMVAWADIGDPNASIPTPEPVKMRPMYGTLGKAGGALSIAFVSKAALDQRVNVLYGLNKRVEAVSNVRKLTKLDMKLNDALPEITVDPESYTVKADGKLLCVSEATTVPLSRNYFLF

Row | Compound | melting point | MIC [2, 8] | MIC (S. cerevisiae RSKK 251; [9]) | IC50 (urease) | MIC [6, 10] | other results
1 | S=c1oc(CNc2ccc(N3CCOCC3)nc2)nn1CN1CCN(c2ccccc2)CC1 [Compound 8, 5-{[(6-Morpholin-4-ylpyridin-3-yl)amino]methyl}-3-[(4-phenylpiperazin-1-yl)methyl]-1,3,4-oxadiazole-2(3H)-thione] | 87 to 88 °C | 125 µg/mL (≈ 267 µM) | 1000 µg/mL (≈ 2140 µM) | 4.99 ± 0.59 µM | 1000 µg/mL (≈ 2140 µM) | antimicrobial activity against all the microorganisms (all the microorganisms): active against all the microorganisms; MIC [1]: 31.3 µg/mL (≈ 66.9 µM); MIC [3]: 62.5 µg/mL (≈ 134 µM); MIC [4]: 62.5 µg/mL (≈ 134 µM); MIC [5]: 31.3 µg/mL (≈ 66.9 µM); MIC (Bacillus cereus 702 Roma): 62.5 µg/mL (≈ 134 µM); MIC [7]: 62.5 µg/mL (≈ 134 µM)
2 | O=C(CNc1ccc(N2CCOCC2)nc1)N/N=C1\SCC(=O)N1c1ccccc1 [Compound 13, 2-[(6-Morpholin-4-ylpyridin-3-yl)amino]-N’-(4-oxo-3-phenyl-1,3-thiazolidin-2-ylidene)acetohydrazide] | 201 to 202 °C |  | 1000 µg/mL (≈ 2340 µM) | 4.46 ± 0.22 µM | 500 µg/mL (≈ 1170 µM) | 
3 | CN[C@@H]1[C@H](O[C@H]2[C@H](O[C@H]3[C@H](O)[C@@H](O)[C@H](N=C(N)N)[C@@H](O)[C@@H]3N=C(N)N)O[C@@H](C)[C@]2(O)C=O)O[C@@H](CO)[C@H](O)[C@H]1O [Str., Streptomisin, reference compound] |  |  |  |  |  | MIC ([2]; ATCC607, Mycobacterium smegmatis ATCC 607, Brain Heart Infusion broth, 48–72 h at 35 °C, – = no activity, read-out: minimal inhibition concentration, Ms): 4 µg/mL (≈ 6.88 µM)
4 | O=C(CNc1ccc(N2CCOCC2)nc1)N/N=C/c1ccc(Br)cc1 [Compound 5, N-(4-Bromobenzylidene)-2-[6-(morpholin-4-yl)pyridin-3-ylamino]acetohydrazide] | 163 to 164 °C | 31.3 µg/mL (≈ 74.8 µM) | 1000 µg/mL (≈ 2390 µM) | 6.87 ± 0.06 µM | 1000 µg/mL (≈ 2390 µM) | 
5 | O=C(CNc1ccc(N2CCOCC2)nc1)NNC(=S)Nc1ccccc1 [Compound 9, 2-{[(6-Morpholin-4-ylpyridin-3-yl)amino]acetyl}-N-phenylhydrazinecarbothioamide] | 171 to 172 °C | 125 µg/mL (≈ 323 µM) | 1000 µg/mL (≈ 2590 µM) | 8.07 ± 1.25 µM | 1000 µg/mL (≈ 2590 µM) | 
6 | c1ccc(Nc2nnc(CNc3ccc(N4CCOCC4)nc3)s2)cc1 [Compound 12] | 172 to 173 °C |  |  |  |  | 
7 | Sc1nnc(CNc2ccc(N3CCOCC3)nc2)n1-c1ccccc1 [Compound 11] | 165 to 166 °C |  |  |  |  | 
8 | NNC(=O)CNc1ccc(N2CCOCC2)nc1 [Compound 4, 2-[6-(Morpholin-4-yl)pyridin-3-ylamino]acetohydrazide] | 175 to 177 °C | 125 µg/mL (≈ 497 µM) | 1000 µg/mL (≈ 3980 µM) | 7.92 ± 1.43 µM | 500 µg/mL (≈ 1990 µM) | 
9 | CC1(C)S[C@@H]2[C@H](NC(=O)[C@H](N)c3ccccc3)C(=O)N2[C@H]1C(=O)O [Amp., Ampicillin, reference compound] |  |  |  |  |  | MIC [1]: 2 µg/mL (≈ 5.72 µM); MIC [3]: 8 µg/mL (≈ 22.9 µM); MIC [4]: 32 µg/mL (≈ 91.6 µM); MIC [5]: 2 µg/mL (≈ 5.72 µM); MIC (Bacillus cereus 702 Roma): < 1 µg/mL; MIC [7]: > 128 µg/mL
10 | O=C(CNc1ccc(N2CCOCC2)nc1)N/N=C/C=C/c1ccccc1 [Compound 6, 2-{[6-(Morpholin-4-yl)pyridin-3-yl]amino}-N-(3-phenylallylidene)acetohydrazide] | 194 to 195 °C |  | 1000 µg/mL (≈ 2740 µM) | 8.29 ± 2.3 µM | 500 µg/mL (≈ 1370 µM) | 
11 | O=C(CNc1ccc(N2CCOCC2)nc1)N/N=c1\sc(-c2ccc(Cl)cc2)cn1-c1ccccc1 [Compound 10] | 168 to 169 °C |  | 1000 µg/mL (≈ 1920 µM) | 2.37 ± 0.19 µM | 500 µg/mL (≈ 960 µM) | 
12 | CCOC(=O)CNc1ccc(N2CCOCC2)nc1 [Compound 3, Ethyl N-(6-morpholin-4-ylpyridin-3-yl)glycinate] | 83 to 84 °C | 125 µg/mL (≈ 471 µM) | 1000 µg/mL (≈ 3770 µM) | 13.2 ± 2.25 µM | 1000 µg/mL (≈ 3770 µM) | 
13 | Sc1nnc(CNc2ccc(N3CCOCC3)nc2)o1 [Compound 7, 5-{[(6-Morpholin-4-ylpyridin-3-yl)amino]methyl}-1,3,4-oxadiazole-2-thiol] | 221 to 222 °C |  | 1000 µg/mL (≈ 3410 µM) | 7.01 ± 0.68 µM | 500 µg/mL (≈ 1700 µM) | 
14 | OC(Cn1cncn1)(Cn1cncn1)c1ccc(F)cc1F [Flu., Fluconazole, reference compound] |  |  |  |  |  | MIC (S. cerevisiae RSKK 251; RSKK251, S. cerevisiae RSKK 251, buffered Yeast Nitrogen Base pH 7.0, 18–24 h at 35 °C, read-out: minimal inhibition concentration, Sc): < 8 µg/mL; MIC ([6]; ATCC60193, Candida albicans ATCC 60193, buffered Yeast Nitrogen Base pH 7.0, 18–24 h at 35 °C, read-out: minimal inhibition concentration, Ca): < 8 µg/mL
